According to patent publication US11472811B2, “Pyrazolotriazolopyrimidine derivatives as A2A receptor antagonist” (BEIGENE, LTD., priority 2018, dated 2022):

Molecular target: human A2A receptor (A2AR) (Homo sapiens (Human), UniProt P29274)
Assay: Luciferase reporter assay (HEK293-A2AR-luc2p/CRE/Hygro cells)
Type: cell-based
Settings: 3 nM CGS21680, 5 h incubation
Procedure: HEK293 cells were maintained in Dulbecco's modified Eagle's medium (DMEM, Gibco) supplemented with 10% fetal bovine serum (FBS, Thermo Scientific), 100 units/mL penicillin (Gibco), and 0.1 mg/mL streptomycin (Gibco) in a humidified 37° C. environment with 5% CO2. Plasmid encoding wild-type human A2A receptor (A2AR) (in pcDNA3.1) was synthesized by Genscript (Nanjing, China). Transfection of the plasmids was performed in 6-well plates with 4×10^5 cells using Lipofectamin 2000 (ThermoFisher Scientific) according to the instruction of the manufacturer. Cell clones that stably express A2AR were established and maintained in the same complete medium as the HEK293 cells in addition of G-418 (Gibico). Expression level of A2AR in each single cell clone was determined using immunoblotting and FACS method. HEK293-A2AR stable cells were then transfected with pGL4.29[luc2P/CRE/Hygro] (Promega) luciferase reporter plasmid for establishing the HEK293-A2AR-luc2p/CRE/Hygro stable cell line.
HEK293-A2AR-luc2p/CRE/Hygro cells were seeded at a density of 5,000 cells/well in DMEM with 1% FBS and 1 U/mL adenosine deaminase (ADA) (Sigma). After 18 h, the cells were treated with 3 nM CGS21680 plus a series dilution of A2AR antagonist, the compounds disclosed herein at the concentration of 0.1˜10000 nM, prepared in DMEM with 1% FBS. After 5 h incubation, the luciferase activity in cells were measured using the Bright-Glo Luciferase Assay System (Promega) according to manufacturer's instructions. The luminescence signal was measured using a PHERAstar FS plate reader (BMG Labtech). […] Maximal luminescence intensity was determined in the presence of 3 nM CGS21680 and was set as 100%. The IC50 value was calculated from a dose dependent inhibition curve across the range of compound concentrations.

human A2A receptor (A2AR), sequence (P29274 whole entry): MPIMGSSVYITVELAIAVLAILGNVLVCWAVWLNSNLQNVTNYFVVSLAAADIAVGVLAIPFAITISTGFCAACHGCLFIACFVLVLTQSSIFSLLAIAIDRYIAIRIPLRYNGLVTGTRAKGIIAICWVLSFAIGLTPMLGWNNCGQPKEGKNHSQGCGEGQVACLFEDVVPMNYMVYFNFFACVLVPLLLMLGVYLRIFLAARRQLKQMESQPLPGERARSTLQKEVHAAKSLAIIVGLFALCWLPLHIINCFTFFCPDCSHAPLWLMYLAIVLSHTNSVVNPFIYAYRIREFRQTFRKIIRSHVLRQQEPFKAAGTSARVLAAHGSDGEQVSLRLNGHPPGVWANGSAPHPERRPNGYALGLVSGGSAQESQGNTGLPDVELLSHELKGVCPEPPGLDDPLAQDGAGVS

IC50 [nM]	SMILES
8.5	CC(C(=O)N[C@H]1CCC[C@@H](O)C1)(c1ccccc1)n1ncc2c1nc(N)n1nc(-c3ccco3)nc21 (stereo partly drawn) [Example 123, 2-(5-amino-2-(furan-2-yl)-7H-pyrazolo[4,3-e][1,2,4]triazolo[1,5-c]pyrimidin-7-yl)-N-((1S,3R)-3-hydroxycyclohexyl)-2-phenylpropanamide]
4.6	COc1ccnc(CNC(=O)[C@@](C)(c2ccccc2)n2ncc3c2nc(N)n2nc(-c4ccco4)nc32)c1 [Example 114B, (R)-2-(5-amino-2-(furan-2-yl)-7H-pyrazolo[4,3-e][1,2,4]triazolo[1,5-c]pyrimidin-7-yl)-N-((4-methoxypyridin-2-yl)methyl)-2-phenylpropanamide]
19.2	CC(C(=O)NC1CCOCC1)(c1ccccc1)n1ncc2c1nc(N)n1nc(-c3ccco3)nc21 (centres unmarked) [Example 98, 2-(5-amino-2-(furan-2-yl)-7H-pyrazolo[4,3-e][1,2,4]triazolo[1,5-c]pyrimidin-7-yl)-2-phenyl-N-(tetrahydro-2H-pyran-4-yl)propanamide]
19.3	C[C@](C(=O)NCCN1CCC(O)CC1)(c1ccccc1)n1ncc2c1nc(N)n1nc(-c3ccco3)nc21 [Example 148B, (R)-2-(5-amino-2-(furan-2-yl)-7H-pyrazolo[4,3-e][1,2,4]triazolo[1,5-c]pyrimidin-7-yl)-N-(2-(4-hydroxypiperidin-1-yl)ethyl)-2-phenylpropanamide]
3.3	COc1cccnc1CNC(=O)[C@@](C)(c1ccccc1)n1ncc2c1nc(N)n1nc(-c3ccco3)nc21 [Example 115B, (R)-2-(5-amino-2-(furan-2-yl)-7H-pyrazolo[4,3-e][1,2,4]triazolo[1,5-c]pyrimidin-7-yl)-N-((3-methoxypyridin-2-yl)methyl)-2-phenylpropanamide]
12	CC(C(=O)NC1CCCC(O)C1)(c1ccccc1)n1ncc2c1nc(N)n1nc(-c3ccco3)nc21 (centres unmarked) [Example 99, 2-(5-amino-2-(furan-2-yl)-7H-pyrazolo[4,3-e][1,2,4]triazolo[1,5-c]pyrimidin-7-yl)-N-(3-hydroxycyclohexyl)-2-phenylpropanamide]
22.5	COCCOc1ccc(N2CCN(CCNC(=O)C(C)(c3ccccc3)n3ncc4c3nc(N)n3nc(-c5ccco5)nc43)CC2)cc1 (centres unmarked) [Example 44, 2-(5-amino-2-(furan-2-yl)-7H-pyrazolo[4,3-e][1,2,4]triazolo[1,5-c]pyrimidin-7-yl)-N-(2-(4-(4-(2-methoxyethoxy)phenyl)piperazin-1-yl)ethyl)-2-phenylpropanamide]
5.2	CC(C(=O)N[C@H]1CC[C@@H](O)CC1)(c1ccccc1)n1ncc2c1nc(N)n1nc(-c3ccco3)nc21 (relative stereo) [Example 76, 2-(5-amino-2-(furan-2-yl)-7H-pyrazolo[4,3-e][1,2,4]triazolo[1,5-c]pyrimidin-7-yl)-(cis)-N-(4-hydroxycyclohexyl)-2-phenylpropanamide]
7	CCNC(=O)C(c1ccccc1)n1ncc2c1nc(N)n1nc(-c3ccco3)nc21 (centres unmarked) [Example 5, 2-(5-amino-2-(furan-2-yl)-7H-pyrazolo[4,3-e][1,2,4]triazolo[1,5-c]pyrimidin-7-yl)-N-ethyl-2-phenylacetamide]
41.6	CC1(O)CCC(NC(=O)[C@](C)(c2ccccc2)n2ncc3c2nc(N)n2nc(-c4ccco4)nc32)CC1 (stereo in doubt) [Example 69A, (S)-2-(5-amino-2-(furan-2-yl)-7H-pyrazolo[4,3-e][1,2,4]triazolo[1,5-c]pyrimidin-7-yl)-(cis)-N-(4-hydroxy-4-methylcyclohexyl)-2-phenylpropanamide]
12.6	C[C@@](C(=O)N[C@@H]1CCC[C@@H]1O)(c1ccccc1)n1ncc2c1nc(N)n1nc(-c3ccco3)nc21 [Example 48A, (S)-2-(5-amino-2-(furan-2-yl)-7H-pyrazolo[4,3-e][1,2,4]triazolo[1,5-c]pyrimidin-7-yl)-N-((1R,2S)-2-hydroxycyclopentyl)-2-phenylpropanamide]
